For series [1], the system named is subcutaneous tumors of SKI. Kind of series: Preliminary combination xenograft experiment. Format: in vivo, irradiated NOD-SCID mice. As to conditions: for tumor response (in words): MTX 40 mg/kg (MTD), Ara-C 300 mg/kg (MTD), or combination at one-half the MTD. How it is done:
Given the experience that SKI-DLCL-1 is the most PDX resistant line in the panel, it was selected for these in vivo synergy experiments. […] All animals were treated with the maximum tolerated dose (MTD) of each drug, save the combination studies.

For series [2], the system named is SKI-DLBCL-1 xenograft. Kind of series: Second combination xenograft experiment (FIG. 5). Format: in vivo, SCID beige mice. To be noted: PDX and Gem at one-quarter of the MTD (15 mg/kg); MTX (60 mg/kg) alone, Ara-C (300 mg/kg) alone or both. How it is done: The same type of test was repeated to assess the in vivo efficacy of using combination therapies. […] Schedule dependent treatment was also determined by pretreating animals with PDX or MTX followed 24 hours later with Gem or Ara-C, respectively. One cohort of animals was treated with Gem followed by PDX. In all cases, the control animals received intraperitoneal injections of normal saline.
Tumor bearing mice were assessed for weight loss and tumor volume at least twice weekly for the duration of the experiment. The data are expressed as the average tumor volume (mm3) per group as a function of time. Tumors were assessed by measuring the two largest perpendicular axes (l=length, w=width) with standard calipers. Tumor volume was calculated using the formula 4/3 πr^3 where r=(l+w)/4. Animals were sacrificed when one dimensional tumor diameter exceeded 2.0 cm, or after loss of more than 10% of their body weight in accordance with institutional guidelines. Animals were housed in standard shoe box cages in temperature and humidity constant rooms on a 12 hour light and dark cycle. Food and water were supplied ad libitum. Animals were maintained in core animal facilities under an institute approved animal protocol.

Series [3] relates to SKI-DLBCL cells. As to the kind of experiment: Cell cycle analysis (propidium iodide binding). Format: cell-based, human. To be noted: result in words.
Procedure: All drugs were assayed at equimolar concentrations (i.e. 1 nM). The incubation conditions were modeled after the in vitro cytotoxicity experiments. Single agent drugs or combinations of all drugs studied without schedule considerations were incubated for 72 hours, while drugs that were studied in some schedule were introduced in a 24+48 incubation scheme (i.e. drug B added 24 hours following drug A, then incubated for an additional 48 hours for a total incubation time of 72 hours). […] In addition to monitoring apoptosis, cell cycle kinetic analyses were also performed on all treated cells based the propidium iodide binding.
The subject of series [4] is HT (Diffuse large B cell). Kind of series: Growth inhibition in vitro, 5 day exposure (XTT or Alamar blue). It counts as cell-based. To be noted: Homo sapiens, 120 h, 5 day drug exposure. How it is done: (§1) A PDX preparation prepared in accordance with Example 1 and an MTX preparation were tested for cytotoxicity against a panel of five human lymphoma cell lines. Experiments were performed as described previously. (Sirotnak et al., Cancer Chemother. Pharmacol. 12: 18-25 (1984). In brief, 2.5 to 5×10^3 cells were plated per well in 96-well flat bottom plates. Drug was added in a 0.9% NaCl solution (pH 7.0) over a range of concentrations, and cells were continuously exposed to drug for 5 days. Colorimetric dye (XTT or Alamar blue) was added for an addition period of time (XTT dye, 6 hours, Alamar blue, 24 hours). Each plate was then read on an automated plate reader at 590 nm. The percentage of inhibition was calculated as growth of cells exposed to drug divided by growth of controls (cells incubated with media only). IC50 values were determined as the drug concentrations at which cell growth was inhibited 50% as compared to controls. Experiments were repeated as lest three times. Experiments were also conducted with continuous drug exposures lasting for 3 and 4 days with results similar to the 5 day results.

Series [5] relates to Hs445 (Hodgkin's disease). Described as above. It counts as cell-based. To be noted: Homo sapiens, Hs 445, 120 h, 5 day drug exposure. The method, then: as §1
In series [6] the test system is RL (Transformed follicular). The description is as above. To be noted: Homo sapiens, 120 h, 5 day drug exposure. Format: cell-based. How it is done: as §1
Series [7] deals with Raji (Burkitt's). The series is described as above. It counts as cell-based. As to conditions: Homo sapiens, 120 h, 5 day drug exposure. The method, then: as §1
Series [8] concerns SKI-DLCL-1 (Diffuse large B Cell). Described as above. Format: cell-based. As to conditions: Homo sapiens, 120 h, 5 day drug exposure. The method, then: A PDX preparation prepared in accordance with Example 1 and an MTX preparation were tested for cytotoxicity against a panel of five human lymphoma cell lines. Experiments were performed as described previously. (Sirotnak et al., Cancer Chemother. […] Colorimetric dye (XTT or Alamar blue) was added for an addition period of time (XTT dye, 6 hours, Alamar blue, 24 hours). Each plate was then read on an automated plate reader at 590 nm. The percentage of inhibition was calculated as growth of cells exposed to drug divided by growth of controls (cells incubated with media only). […] Experiments were repeated as lest three times.

In series [9] the test system is human HT (diffuse large B cell) non-Hodgkin's lymphoma xenografts. Kind of series: Subcutaneous lymphoma xenograft treatment. Format: in vivo. The text has this:
(§2) In order to study the effects of PDX on lymphoma growth in vivo, subcutaneous transplantation models in NOD/SCID mice were generated using three established human lymphoma cell line representative of aggressive transformed FL (RL) and de novo extranodal DLBCL (HT; SKI-DLCL-1) histologies. Six to eight week old non-obsese diabetic severe combined immunodeficient (NOD/SCID) mice (Jackson Laboratories, Bar Harbor, Me.) were sub-lethally irradiated with […] from a gamma source and inoculated with 10×10^6 lymphoma cells via a subcutaneous route. When tumor volumes approached 100 mm^3, mice were divided into three groups, averaging 3-8 mice per group. Mice were treated with normal saline or the maximum tolerated dose (MTD) of MTX (40 mg/kg) or PDX (60 mg/kg) via an intraperitoneal route twice weekly for two weeks (four total doses). […] (Sirotnak, et al., Cancer Chemother. Pharmacol. 12: 26-30 (1984); Sirotnak et al., Cancer Chemother. Pharmacol. 42: 313-318 (1998).
(§3) Engraftment rates in this experiment ranged from 80 to 90%. Palpable tumors formed under the skin approximately 7-10 days after inoculation and were readily measurable with calipers. Mice with subcutaneous lymphoma growths survived an average of 40-50 days after inoculation.

Series [10] has as its system human RL (transformed follicular) non-Hodgkin's lymphoma xenografts. Kind of series: Subcutaneous lymphoma xenograft treatment. Format: in vivo.
From the text: as §2, §3

For series [11], the system named is human SKI-DLCL-1 (de novo diffuse large B cell) non-Hodgkin's lymphoma xenografts. As to the kind of experiment: Subcutaneous lymphoma xenograft treatment. It counts as in vivo. To be noted: SKI-DLCL-1 xenografts.
From the text: as §2, §3

Series [12] relates to SKI-DLBCL-1 xenografts. As to the kind of experiment: TUNEL immunohistochemical staining for apoptosis in xenografts. It counts as in vivo, mice. As to conditions: day 21; MTX 40 mg/kg or PDX 60 mg/kg on days 0, 3, 7 and 10. How it is done:
Immunohistochemical staining for apoptosis as measured by terminal deoxynucleotide transferase-mediated nick end-labeling (TUNEL) was performed on SKI-DLBCL-1 xenografts from mice sacrificed at day 21 following initiation of antifolate therapy. Mice received four doses of saline, MTX (40 mg/kg) or PDX (60 mg/kg) on days 0, 3, 7 and 10.

For series [13] the following is noted: cited from earlier work; for weight loss at the MTD: nude mice.

SMILES strings stand for the structures.

One may read the IC50 as the point on the concentration scale where inhibition reaches its midpoint.

For the compound `Nc1ccn([C@@H]2O[C@H](CO)[C@@H](O)[C@@H]2O)c(=O)n1` [Ara-C, cytarabine], the “tumor response (in words)” value is reported as “modest growth delay compared to the control” in [1] and “sacrificed early due to excessive tumor growth” in series [2].
As for `Nc1ccn([C@@H]2O[C@H](CO)[C@@H](O)C2(F)F)c(=O)n1` [Gem, 1-(2′,2′-difluoro-β-D-arabinofuranosyl) cytosine], the “fraction of cells in S-phase” value in series [3] was “fewest”.
As to `CN(Cc1cnc2nc(N)nc(N)c2n1)c1ccc(C(=O)N[C@@H](CCC(=O)O)C(=O)O)cc1` [MTX, methotrexate], the IC50 in [4] is 35 ± 5 nM; in [5] it was 32 ± 2.2 nM; in [6], 210 ± 40 nM; in series [7], 16 ± 0.8 nM; in [8] it was 48 ± 2.5 nM. In addition, the “tumor response (in words)” value in [9] (MTX 40 mg/kg) was “modest growth delay as compared to controls, there was no tumor regression”; in series [10] (MTX 40 mg/kg) it was “small reductions in growth an no regressions”; in series [11] (MTX 40 mg/kg), “small reductions in growth an no regressions”; in [1], “modest growth delay compared to the control”; in series [2] it was “sacrificed early due to excessive tumor growth”. The “apoptotic cells in tumor tissue (TUNEL)” value in [12] is given as “little or no evidence of apoptotic cells”. The “weight loss at the MTD” value in series [13] is recorded as “less than 10%”.
For the compound `C#CCC(Cc1cnc2nc(N)nc(N)c2n1)c1ccc(C(=O)N[C@@H](CCC(=O)O)C(=O)O)cc1` (stereo partly shown) [PDX, 10-Propargyl-10-deazaminopterin], the “Complete Regression (no/total)” value is listed as 8/9 in series [9] (MTX 40 mg/kg, PDX 60 mg/kg); 5/9 in series [10] (MTX 40 mg/kg, PDX 60 mg/kg); 3/10 in series [11] (MTX 40 mg/kg, PDX 60 mg/kg). In addition, the “Avg Tumor Diameter (mm ± SE)” value in series [9] (MTX 40 mg/kg, PDX 60 mg/kg, at the nadir of tumor regression) stood at 0.5 mm. Also, the “mice with complete tumor regression” value in series [9] (PDX 60 mg/kg, 8 of 9) is given as 89%. The “Tumor Regression (%)” value was determined as 99% in series [9] (PDX 60 mg/kg, average tumor regression); 56% in [10] (PDX 60 mg/kg); 54% in series [11] (PDX 60 mg/kg). Also, the “decrease of tumor volumes from initial volumes” value in series [10] (PDX 60 mg/kg) and in [11] (PDX 60 mg/kg) was “at least 50%” in each case. Moreover, the “mice with tumor regressions” value in [10] (PDX 60 mg/kg, 5 of 9 mice) is given as 57%. In addition, the “mice with tumor regressions / complete remissions” value in series [11] (PDX 60 mg/kg, 3 of 10 mice) is reported as 30%. Moreover, the “tumor regrowth, % of initial tumor volumes” value in series [1] (PDX or Gem at 60 mg/kg, by day 44) worked out at 739%. In addition, the “apoptotic cells in tumor tissue (TUNEL)” value in series [12] is listed as “a high level of apoptotic cells”. For the same compound, the “maximum tolerated dose (MTD)” value in [13] (intraperitoneal, twice weekly, four total doses) is listed as 60 mg/kg. Further, the “weight loss at the MTD” value in series [13] was “less than 10%”.

These data come from US20080058280A1, “Treatment of Lymphoma Using 10-Propargyl-10-Deazaaminopterin and Gemcitabine” (SLOAN-KETTERING INSTITUTE FOR CANCER RESEARCH, priority 2004, published 2008).
